According to US4349672A, “Cephalosporin derivatives” (Hoffmann-La Roche Inc., priority 1979, dated 1982):
Counter-ions that a name gives are not always drawn.

Legend:
Assay in all cases: Activity in vitro: minimum inhibitory concentration
Format in all cases: cell-based
Serratia marcescens = test system: Serratia marcescens
Description: (§1) Activity in vitro: Minimum inhibitory concentration (μg/ml)

Proteus vulgaris = test system: Proteus vulgaris
Description: as §1

Streptococcus pyogenes = conditions: gram positive
Description: as §1

Citrobacter freundii = test system: Citrobacter freundii
Description: as §1

Enterobacter aerogenes = conditions: Klebsiella aerogenes
Description: as §1

Proteus inconstans = conditions: Providencia alcalifaciens, gram negative
Description: as §1

Enterobacter cloacae = test system: Enterobacter cloacae
Description: as §1

Proteus mirabilis = test system: Proteus mirabilis
Description: as §1

Klebsiella pneumoniae = test system: Klebsiella pneumoniae
Description: as §1

Escherichia coli = test system: Escherichia coli
Description: as §1

Proteus rettgeri = conditions: Providencia rettgeri, gram negative
Description: as §1

Acinetobacter anitratus = conditions: Acinetobacter calcoaceticus, gram negative
Description: as §1

[1] = Serratia marcescens Strain 1, gram negative
[2] = Serratia marcescens Strain 2, gram negative
[3] = Proteus vulgaris Strain 1, gram negative
[4] = Proteus vulgaris Strain 2, gram negative
[5] = Proteus vulgaris Strain 3, gram negative
[6] = Citrobacter freundii Strain 1, gram negative
[7] = Citrobacter freundii Strain 2, gram negative
[8] = Enterobacter aerogenes Strain 1, gram negative
[9] = Enterobacter aerogenes Strain 2, gram negative
[10] = Enterobacter cloacae Strain 1, gram negative
[11] = Enterobacter cloacae Strain 2, gram negative
[12] = Proteus mirabilis Strain 1, gram negative
[13] = Proteus mirabilis Strain 2, gram negative
[14] = Klebsiella pneumoniae Strain 1, gram negative
[15] = Klebsiella pneumoniae Strain 2, gram negative
[16] = Klebsiella pneumoniae Strain 3, gram negative
[17] = Escherichia coli Strain 1, gram negative
[18] = Escherichia coli Strain 2, gram negative
[19] = Escherichia coli Strain 3, gram negative
[20] = Escherichia coli Strain 4, gram negative

SMILES	MIC (Serratia marcescens; [1]) [µg/mL]	MIC (Serratia marcescens; [2]) [µg/mL]	MIC (Proteus vulgaris; [3]) [µg/mL]	MIC (Proteus vulgaris; [4]) [µg/mL]	MIC (Proteus vulgaris; [5]) [µg/mL]	MIC (Streptococcus pyogenes) [µg/mL]	MIC (Citrobacter freundii; [6]) [µg/mL]	MIC (Citrobacter freundii; [7]) [µg/mL]	MIC (Enterobacter aerogenes; [8]) [µg/mL]	MIC (Enterobacter aerogenes; [9]) [µg/mL]	MIC (Proteus inconstans) [µg/mL]	MIC (Enterobacter cloacae; [10]) [µg/mL]	MIC (Enterobacter cloacae; [11]) [µg/mL]	MIC (Proteus mirabilis; [12]) [µg/mL]	MIC (Proteus mirabilis; [13]) [µg/mL]	MIC (Klebsiella pneumoniae; [14]) [µg/mL]	MIC (Klebsiella pneumoniae; [15]) [µg/mL]	MIC (Klebsiella pneumoniae; [16]) [µg/mL]	MIC (Escherichia coli; [17]) [µg/mL]	MIC (Escherichia coli; [18]) [µg/mL]	also measured
CO/N=C(\C(=O)N[C@@H]1C(=O)N2C(C(=O)O)=C(CSc3nc(=O)c(O)nn3C)CS(=O)(=O)[C@H]12)c1csc(N)n1 [Derivative B, disodium salt of (6R,7R)-7-[2-(2-amino-4-thiazolyl)-2-[(Z)-methoxyimino]acetamido]-3-[[(2,5-dihydro-6-hydroxy-2-methyl-5-oxo-as-triazin-3-yl)thio]methyl]-8-oxo-5-thia-1-azabicyclo[4.2.0]oct-2-ene-2-carboxylic acid 5,5-dioxide]	1.6	0.78	0.39	0.19	0.19	3.1	0.19	0.19	0.39	0.1	0.025	6.3	0.39	0.1	0.78	0.39	0.19	0.19	0.05	0.39	MIC (Escherichia coli; [19]): 0.19 µg/mL; MIC (Escherichia coli; [20]): 0.39 µg/mL; MIC (Proteus rettgeri): 0.05 µg/mL; MIC (Acinetobacter anitratus): 100 µg/mL
CO/N=C(\C(=O)N[C@@H]1C(=O)N2C(C(=O)O)=C(CSc3nc(=O)c(O)nn3C)C[S@+]([O-])[C@H]12)c1csc(N)n1 [Derivative A, disodium salt of (6R,7R)-7-[2-(2-amino-4-thiazolyl)-2-[(Z)-methoxyimino]acetamido]-3-[[(2,5-dihydro-6-hydroxy-2-methyl-5-oxo-as-triazin-3-yl)thio]methyl]-8-oxo-5-thia-1-azabicyclo[4.2.0]oct-2-ene-2-carboxylic acid 5-(s)-oxide]	0.39	0.19	0.1	0.1	0.05	1.6	0.19	0.05	0.19	0.1	≤ 0.006	3.1	0.19	0.025	0.39	0.1	0.025	0.1	0.025	0.19	MIC (Escherichia coli; [19]): 0.1 µg/mL; MIC (Escherichia coli; [20]): 0.1 µg/mL; MIC (Proteus rettgeri): ≤ 0.006 µg/mL; MIC (Acinetobacter anitratus): 25 µg/mL
